Results reported in US9233964B2, “Sulfamide piperazine derivatives as protein tyrosine kinase inhibitors and pharmaceutical use therof” (LEO PHARMA A/S, priority 2011, dated 2016).

Columns and labels:
Format in all cases: biochemical
JAK2 = target: T1, JAK2 (Homo sapiens, UniProt O60674); assay: JAK kinase assay (HTRF, phosphorylation of synthetic peptide), JAK2; conditions: catalytic domain, ATP at Km (4 μM); read-out: JAK2 kinase inhibitory activity (EC50)
T1 construct: All four purified enzymes contain only the catalytic domain; His (N); purchased Carna Biosciences, Inc; host or cells: baculovirus expression system
Description: (§1) Human baculovirus-expressed JAK1, 2, 3 and TYK2 were purchased from Carna Biosciences, Inc. All four purified enzymes contain only the catalytic domain. JAK1 (aa 850-1154) and TYK2 (aa 871-1187) are expressed with an N-terminally fused GST-tag, and JAK2 and JAK3 with an N-terminally fused His-tag.
(§2) Inhibition of phosphorylation of a synthetic peptide was measured in an HTRF-based assay using the TK substrate-Biotin from the Cisbio HTRFKinEASE TK kit. First, 2 μl of TK solution (TK substrate-biotin in kinase buffer [1× enzymatic buffer from HTRFKinEASE TK kit, 1 mM DTT]) is added to a plate containing 1 μl prediluted compound (final assay concentration DMSO: 0.75%). Then, 5 μl kinase-ATP mix (prepared in kinase buffer) is added to the wells and the plates are incubated at RT for 20-30 min. For all four kinases a concentration of ATP that corresponded to the Km for ATP was used. The final concentrations of buffers, substrate, kinase and ATP were: JAK1: 50 mM Hepes buffer pH 7.0, 0.01% BSA, 10 mM MgCl2, 1 mM DTT, 7 μM ATP, 50 nM SEB, 1 μM TK Substrate-Biotin and 5 ng JAK1; JAK2: 50 mM Hepes buffer pH 7.0, 0.01% BSA, 5 mM MgCl2, 1 mM DTT, 4 μM ATP, 1 μM TK Substrate-Biotin and 0.1 ng JAK2; JAK3: 50 mM Hepes buffer pH 7.0, 0.01% BSA, 5 mM MgCl2, 1 mM DTT, 2 μM ATP, 1 μM TK Substrate-Biotin and 0.3 ng JAK3; TYK2: 50 mM Hepes buffer pH 7.0, 0.01% BSA, 5 mM MgCl2, 1 mM DTT, 13 μM ATP, 50 nM SEB, 1 μM TK Substrate-Biotin and 0.8 ng TYK2. Thereafter, the kinase reaction is stopped by adding 4 μl detection mix (final concentrations: 50 mM Hepes buffer pH 7.0, 0.01% BSA, 0.8 M KF, 20 mM EDTA, 42 nM Streptavidin-XL665 and 1:400 STK Ab Cryptate) and the plates are incubated overnight in the dark. The HTRF signal is read using an Envision plate reader.

JAK3 = target: T2, JAK3 (Homo sapiens, UniProt P52333); assay: JAK kinase assay (HTRF, phosphorylation of synthetic peptide), JAK3; conditions: catalytic domain, ATP at Km (2 μM); read-out: JAK3 kinase inhibitory activity (EC50)
T2 construct: All four purified enzymes contain only the catalytic domain; His (N); purchased Carna Biosciences, Inc; host or cells: baculovirus expression system
Description: as §1, §2

JAK1 = target: T3, JAK1 (Homo sapiens, UniProt P23458); assay: JAK kinase assay (HTRF, phosphorylation of synthetic peptide), JAK1; conditions: catalytic domain, ATP at Km (7 μM); read-out: JAK1 kinase inhibitory activity (EC50)
T3 construct: JAK1 (aa 850-1154) and TYK2 (aa 871-1187) are expressed with an N-terminally fused GST-tag; GST (N); purchased Carna Biosciences, Inc; host or cells: baculovirus expression system
Description: as §1, §2

TYK2 = target: T4, TYK2 (Homo sapiens, UniProt P29597); assay: JAK kinase assay (HTRF, phosphorylation of synthetic peptide), TYK2; conditions: catalytic domain, ATP at Km (13 μM); read-out: TYK2 kinase inhibitory activity (EC50)
T4 construct: JAK1 (aa 850-1154) and TYK2 (aa 871-1187) are expressed with an N-terminally fused GST-tag; GST (N); purchased Carna Biosciences, Inc; host or cells: baculovirus expression system
T4 sequence (P29597 871-1187): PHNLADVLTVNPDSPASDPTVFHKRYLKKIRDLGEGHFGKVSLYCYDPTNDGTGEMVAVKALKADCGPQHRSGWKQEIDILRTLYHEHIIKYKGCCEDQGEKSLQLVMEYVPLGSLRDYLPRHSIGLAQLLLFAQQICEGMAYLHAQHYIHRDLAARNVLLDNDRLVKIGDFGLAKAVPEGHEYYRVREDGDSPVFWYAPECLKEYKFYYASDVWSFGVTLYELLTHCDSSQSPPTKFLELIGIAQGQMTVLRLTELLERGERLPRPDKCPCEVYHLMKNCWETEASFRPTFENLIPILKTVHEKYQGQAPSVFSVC
Description: as §1, §2

T1 sequence (O60674 849-1124 limits assumed): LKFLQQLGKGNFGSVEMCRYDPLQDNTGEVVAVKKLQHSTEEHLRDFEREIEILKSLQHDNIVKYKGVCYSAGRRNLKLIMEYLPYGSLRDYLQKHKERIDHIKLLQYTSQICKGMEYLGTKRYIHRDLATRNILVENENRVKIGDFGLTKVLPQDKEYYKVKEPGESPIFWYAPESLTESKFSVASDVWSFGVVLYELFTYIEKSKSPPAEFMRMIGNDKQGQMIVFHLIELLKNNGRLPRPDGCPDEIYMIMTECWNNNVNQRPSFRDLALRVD
T3 sequence (P23458 850-1154): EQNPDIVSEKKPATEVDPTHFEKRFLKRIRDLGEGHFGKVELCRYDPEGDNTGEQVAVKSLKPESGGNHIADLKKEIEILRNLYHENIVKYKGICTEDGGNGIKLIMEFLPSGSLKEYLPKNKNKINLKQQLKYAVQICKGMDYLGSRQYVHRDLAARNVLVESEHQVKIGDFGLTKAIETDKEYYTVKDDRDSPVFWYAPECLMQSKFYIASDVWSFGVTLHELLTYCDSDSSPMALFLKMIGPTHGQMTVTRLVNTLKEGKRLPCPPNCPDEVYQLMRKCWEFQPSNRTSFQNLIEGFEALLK
T2 sequence (P52333 822-1111 limits assumed): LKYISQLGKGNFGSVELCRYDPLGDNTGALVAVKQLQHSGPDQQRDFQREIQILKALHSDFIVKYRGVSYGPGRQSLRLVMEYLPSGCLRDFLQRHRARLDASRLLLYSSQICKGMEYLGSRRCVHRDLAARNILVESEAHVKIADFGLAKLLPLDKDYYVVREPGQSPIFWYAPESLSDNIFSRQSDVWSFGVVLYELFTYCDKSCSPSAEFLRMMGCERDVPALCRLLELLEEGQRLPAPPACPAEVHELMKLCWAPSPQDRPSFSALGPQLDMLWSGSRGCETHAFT

EC50 (JAK2) | EC50 (JAK3) | EC50 (JAK1) | EC50 (TYK2) | SMILES
< 100 nM | 100 to 500 nM | < 100 nM | 100 to 500 nM | CN(Cc1ccccc1F)S(=O)(=O)N1CCN(c2ncnc3[nH]ccc23)CC12CC2 [Example 77, N-[(2-fluorophenyl)methyl]-N-methyl-5-(7H-pyrrolo[2,3-d]pyrimidin-4-yl)-5,8-diazaspiro[2.5]octane-8-sulfonamide]
< 100 nM | < 100 nM | < 100 nM | < 100 nM | CN(C[C@@H]1CC(F)(F)CN1S(=O)(=O)CC1CC1)S(=O)(=O)N1CCN(c2ncnc3[nH]ccc23)CC12CC2 [Example 164, N-[[(2S)-1-(cyclopropylmethylsulfonyl)-4,4-difluoro-pyrrolidin-2-yl]methyl]-N-methyl-5-(7H-pyrrolo[2,3-d]pyrimidin-4-yl)-5,8-diazaspiro[2.5]octane-8-sulfonamide]
< 100 nM | < 100 nM | < 100 nM | < 100 nM | CN(C[C@@H]1CC(F)(F)CN1C=O)S(=O)(=O)N1CCN(c2ncnc3[nH]ccc23)CC12CC2 [Example 157, N-[[(2S)-4,4-difluoro-1-formyl-pyrrolidin-2-yl]methyl]-N-methyl-5-(7H-pyrrolo[2,3-d]pyrimidin-4-yl)-5,8-diazaspiro[2.5]octane-8-sulfonamide]
< 100 nM | 100 to 500 nM | < 100 nM | > 500 nM | CCCN(CCc1ccccc1)S(=O)(=O)N1CCN(c2ncnc3[nH]ccc23)CC12CC2 [Example 7, 7-(7H-Pyrrolo[2,3-d]pyrimidin-4-yl)-4,7-diaza-spiro[2.5]octane-4-sulfonic acid phenethyl-propyl-amide]
< 100 nM | < 100 nM | < 100 nM | 100 to 500 nM | CN(C1COC1)S(=O)(=O)N1CCN(c2ncnc3[nH]ccc23)CC12CC2 [Example 112, N-methyl-N-(oxetan-3-yl)-5-(7H-pyrrolo[2,3-d]pyrimidin-4-yl)-5,8-diazaspiro[2.5]octane-8-sulfonamide]
< 100 nM | 100 to 500 nM | < 100 nM | < 100 nM | CCN(C1CCC1)S(=O)(=O)N1CCN(c2ncnc3[nH]ccc23)CC12CC2 [Example 99, N-cyclobutyl-N-ethyl-5-(7H-pyrrolo[2,3-d]pyrimidin-4-yl)-5,8-diazaspiro[2.5]octane-8-sulfonamide]
< 100 nM | < 100 nM | < 100 nM | < 100 nM | CN(C[C@H]1CCCN1S(=O)(=O)CCCC#N)S(=O)(=O)N1CCN(c2ncnc3[nH]ccc23)CC12CC2 [Example 182, N-[[(2R)-1-(3-cyanopropylsulfonyl)pyrrolidin-2-yl]methyl]-N-methyl-5-(7H-pyrrolo[2,3-d]pyrimidin-4-yl)-5,8-diazaspiro[2.5]octane-8-sulfonamide]
< 100 nM | < 100 nM | < 100 nM | 100 to 500 nM | Cc1noc(C)c1CCN(C)S(=O)(=O)N1CCN(c2ncnc3[nH]ccc23)CC12CC2 [Example 32, 7-(7H-Pyrrolo[2,3-d]pyrimidin-4-yl)-4,7-diaza-spiro[2.5]octane-4-sulfonic acid [2-(3,5-dimethyl-isoxazol-4-yl)-ethyl]-methyl-amide]
< 100 nM | 100 to 500 nM | < 100 nM | > 500 nM | CN(CC1CCCN(S(=O)(=O)CCCC#N)C1)S(=O)(=O)N1CCN(c2ncnc3[nH]ccc23)CC12CC2 (stereo not shown) [Example 161, N-[[1-(3-cyanopropylsulfonyl)-3-piperidyl]methyl]-N-methyl-5-(7H-pyrrolo[2,3-d]pyrimidin-4-yl)-5,8-diazaspiro[2.5]octane-8-sulfonamide]
< 100 nM | < 100 nM | < 100 nM | < 100 nM | CN(C[C@@H]1CCCN1C(=O)CO)S(=O)(=O)N1CCN(c2ncnc3[nH]ccc23)CC12CC2 [Example 192, N-[[(2S)-1-(2-hydroxyacetyl)pyrrolidin-2-yl]methyl]-N-methyl-5-(7H-pyrrolo[2,3-d]pyrimidin-4-yl)-5,8-diazaspiro[2.5]octane-8-sulfonamide]
< 100 nM | 100 to 500 nM | < 100 nM | > 500 nM | CC(C)N(CC#N)S(=O)(=O)N1CCN(c2ncnc3[nH]ccc23)CC12CC2 [Example 96, N-(cyanomethyl)-N-isopropyl-5-(7H-pyrrolo[2,3-d]pyrimidin-4-yl)-5,8-diazaspiro[2.5]octane-8-sulfonamide]
< 100 nM | 100 to 500 nM | < 100 nM | 100 to 500 nM | CN(CC1CCCCO1)S(=O)(=O)N1CCN(c2ncnc3[nH]ccc23)CC12CC2 (stereo not shown) [Example 64, N-methyl-5-(7H-pyrrolo[2,3-d]pyrimidin-4-yl)-N-(tetrahydropyran-2-ylmethyl)-5,8-diazaspiro[2.5]octane-8-sulfonamide]
< 100 nM | 100 to 500 nM | < 100 nM | 100 to 500 nM | CN(CC1CC(=O)C1)S(=O)(=O)N1CCN(c2ncnc3[nH]ccc23)CC12CC2 [Example 88, N-methyl-N-[(3-oxocyclobutyl)methyl]-5-(7H-pyrrolo[2,3-d]pyrimidin-4-yl)-5,8-diazaspiro[2.5]octane-8-sulfonamide]
< 100 nM | 100 to 500 nM | < 100 nM | > 500 nM | CCOC(=O)CN(CCc1ccccc1)S(=O)(=O)N1CCN(c2ncnc3[nH]ccc23)CC12CC2 [Example 46, {Phenethyl-[7-(7H-pyrrolo[2,3-d]pyrimidin-4-yl)-4,7-diaza-spiro[2.5]octane-4-sulfonyl]-amino}-acetic acid ethyl ester]
< 100 nM | < 100 nM | < 100 nM | < 100 nM | CN(C[C@H]1CCCN1S(C)(=O)=O)S(=O)(=O)N1CCN(c2ncnc3[nH]ccc23)CC12CC2 [Example 181, N-methyl-N-[[(2R)-1-methylsulfonylpyrrolidin-2-yl]methyl]-5-(7H-pyrrolo[2,3-d]pyrimidin-4-yl)-5,8-diazaspiro[2.5]octane-8-sulfonamide]
< 100 nM | 100 to 500 nM | < 100 nM | 100 to 500 nM | CN(CCOc1ccccc1)S(=O)(=O)N1CCN(c2ncnc3[nH]ccc23)CC12CC2 [Example 31, 7-(7H-Pyrrolo[2,3-d]pyrimidin-4-yl)-4,7-diaza-spiro[2.5]octane-4-sulfonic acid methyl-(2-phenoxy-ethyl)-amide]
< 100 nM | 100 to 500 nM | < 100 nM | > 500 nM | CN(CC1CCN(C(=O)CCO)C1)S(=O)(=O)N1CCN(c2ncnc3[nH]ccc23)CC12CC2 (stereo not shown) [Example 123, N-[[1-(3-hydroxypropanoyl)pyrrolidin-3-yl]methyl]-N-methyl-5-(7H-pyrrolo[2,3-d]pyrimidin-4-yl)-5,8-diazaspiro[2.5]octane-8-sulfonamide]
< 100 nM | < 100 nM | < 100 nM | < 100 nM | CN(CCC1CC1)S(=O)(=O)N1CCN(c2ncnc3[nH]ccc23)CC12CC2 [Example 82, N-(2-cyclopropylethyl)-N-methyl-5-(7H-pyrrolo[2,3-d]pyrimidin-4-yl)-5,8-diazaspiro[2.5]octane-8-sulfonamide]
< 100 nM | 100 to 500 nM | 100 to 500 nM | > 500 nM | CCN(C(C)C)S(=O)(=O)N1CCN(c2ncnc3[nH]ccc23)CC12CC2 [Example 95, N-ethyl-N-isopropyl-5-(7H-pyrrolo[2,3-d]pyrimidin-4-yl)-5,8-diazaspiro[2.5]octane-8-sulfonamide]
